Measurements: ChEMBL document CHEMBL3098114, “Combining the tail and the ring approaches for obtaining potent and isoform-selective carbonic anhydrase inhibitors: solution and X-ray crystallographic studies” (Bioorg Med Chem, 2014)

Tests used:
[1] = biological target: Carbonic anhydrase 2 (Homo sapiens, UniProt P00918); test: Inhibition of human CA2 cytosolic isoform preincubated for 15 mins by stopped-flow CO2 hydration method
[2] = biological target: Carbonic anhydrase 12 (Homo sapiens, UniProt O43570)
Carbonic anhydrase 12, sequence (O43570 whole entry): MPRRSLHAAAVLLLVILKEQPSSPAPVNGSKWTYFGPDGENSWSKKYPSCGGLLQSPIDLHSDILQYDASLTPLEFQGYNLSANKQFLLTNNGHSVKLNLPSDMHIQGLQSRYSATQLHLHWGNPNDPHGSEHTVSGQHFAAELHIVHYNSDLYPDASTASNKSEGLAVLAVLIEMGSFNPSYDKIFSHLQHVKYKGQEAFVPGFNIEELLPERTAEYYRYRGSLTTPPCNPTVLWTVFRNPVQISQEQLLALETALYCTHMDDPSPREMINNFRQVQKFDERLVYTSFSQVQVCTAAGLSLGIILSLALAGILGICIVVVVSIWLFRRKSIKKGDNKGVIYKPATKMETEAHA

[3] = biological target: Carbonic anhydrase 7 (Homo sapiens, UniProt P43166); test: Inhibition of human CA7 preincubated for 15 mins by stopped-flow CO2 hydration method
Carbonic anhydrase 7, sequence (P43166 whole entry): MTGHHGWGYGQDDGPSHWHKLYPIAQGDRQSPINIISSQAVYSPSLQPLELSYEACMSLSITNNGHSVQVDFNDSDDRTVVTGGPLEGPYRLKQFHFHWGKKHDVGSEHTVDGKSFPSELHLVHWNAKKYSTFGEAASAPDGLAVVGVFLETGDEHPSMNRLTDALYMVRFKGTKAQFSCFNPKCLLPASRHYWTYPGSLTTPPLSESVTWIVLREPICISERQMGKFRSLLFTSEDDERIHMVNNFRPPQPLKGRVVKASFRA

[4] = biological target: Carbonic anhydrase 9 (Homo sapiens, UniProt Q16790)
[5] = biological target: Carbonic anhydrase 1 (Homo sapiens, UniProt P00915)
Carbonic anhydrase 1, sequence (P00915 whole entry): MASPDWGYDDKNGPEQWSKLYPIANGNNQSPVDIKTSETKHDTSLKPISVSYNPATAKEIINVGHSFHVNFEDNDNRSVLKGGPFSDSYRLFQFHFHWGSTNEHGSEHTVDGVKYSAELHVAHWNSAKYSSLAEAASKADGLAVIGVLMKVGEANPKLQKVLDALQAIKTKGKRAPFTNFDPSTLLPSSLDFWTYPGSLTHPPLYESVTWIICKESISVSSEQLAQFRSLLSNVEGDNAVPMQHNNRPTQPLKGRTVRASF

[6] = biological target: Carbonic anhydrase 3 (Homo sapiens, UniProt P07451)
Carbonic anhydrase 3, sequence (P07451 whole entry): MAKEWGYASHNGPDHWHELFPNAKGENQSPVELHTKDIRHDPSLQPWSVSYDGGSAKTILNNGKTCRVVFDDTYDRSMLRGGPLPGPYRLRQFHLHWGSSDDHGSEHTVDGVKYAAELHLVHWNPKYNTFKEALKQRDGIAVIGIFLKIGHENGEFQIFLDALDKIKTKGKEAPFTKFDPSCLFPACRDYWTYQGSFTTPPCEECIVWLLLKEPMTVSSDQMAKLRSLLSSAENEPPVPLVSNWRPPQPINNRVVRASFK

[7] = biological target: Carbonic anhydrase 13 (Homo sapiens, UniProt Q8N1Q1)
Carbonic anhydrase 13, sequence (Q8N1Q1 whole entry): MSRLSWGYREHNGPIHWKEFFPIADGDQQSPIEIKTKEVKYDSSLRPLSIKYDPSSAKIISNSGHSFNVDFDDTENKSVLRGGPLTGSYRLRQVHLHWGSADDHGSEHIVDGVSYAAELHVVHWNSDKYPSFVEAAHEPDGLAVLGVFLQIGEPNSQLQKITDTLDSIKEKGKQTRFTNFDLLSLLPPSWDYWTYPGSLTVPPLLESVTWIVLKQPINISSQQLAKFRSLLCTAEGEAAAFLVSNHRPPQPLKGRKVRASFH

Ki [1]	Ki [2]	Ki [3]	Ki [4]	Ki [5]	Ki [6]	SMILES	Ki [7]
253 nM	114 nM	135 nM	279 nM	24700 nM	> 100000 nM	Nc1ccc(S(N)(=O)=O)nc1	
		30 nM			> 100000 nM	Cc1ccc(S(=O)(=O)NC(=O)Nc2ccc(S(N)(=O)=O)nc2)cc1	
		6.4 nM			> 100000 nM	Cc1ccc(S(=O)(=O)NC(=O)Nc2ccc(S(N)(=O)=O)cc2)cc1	

SMILES	Ki [1]	Ki [2]	Ki [3]	Ki [4]	Ki [5]	Ki [6]	Ki [7]
Nc1ccc(S(N)(=O)=O)cc1 [SULFANILAMIDE]						> 100000 nM	35 nM
